Source: US7598278B2, “Administration of pyridinedicarboxylic acid compounds for stimulating or inducing the growth of human keratinous fibers and/or arresting their loss” (L'Oreal, priority 2002, dated 2009)
Read-outs that look alike come from different tables or passages of the source.

How the values were obtained:
[1] = system: men exhibiting androgenetic alopecia of stage III to V according to the Hamilton classification; details: for No. of hairs/per cm^2 (DE): mean ± standard deviation
Experimental: Pyridine-2,4-dicarboxylic acid was tested in the form of the Na double salt formulated at a concentration of 5% in an aqueous/alcoholic lotion.
The evaluation of the effectiveness of the treatments was carried out by determining the total pilar density of hairs per cm^2 (DE) using the phototrichogram technique. This examination was carried out before treatment (M0) and after 3 months of treatment (M3).

proline hydroxylase = details: K. Majamaa et al., Eur. J. Biochem., 138, 1984, 239-245; cited from earlier work
[2] = system: men exhibiting androgenetic alopecia of stage III to V according to the Hamilton classification; test: 1st study: in vivo activity, total pilar density of hairs per cm^2 (DE) by phototrichogram; parameters: species or system human; details: for No. of hairs/per cm^2 (DE): mean ± standard deviation
Excerpt: It was studied at a concentration of 2%, formulated in a ternary lotion based on propylene glycol, ethanol and water.

## O=C([O-])c1ccnc(C(=O)[O-])c1.[Na+].[Na+] [Na disalt of Pyridine-2,4-dicarboxylic acid]
[1]; 5% lotion, 3 months, versus placebo areas
  hair loss (decrease in total density) compared with placebo areas, times smaller: 4 times
[1]; M0, before treatment, scalp area to receive 5% aqueous/alcoholic lotion, 22 men
  No. of hairs/per cm^2 (DE): 249 ± 50 hairs/per cm^2
[1]; M3, after 3 months, 5% aqueous/alcoholic lotion, 30 μl once daily, 5 days per week, topical on scalp
  No. of hairs/per cm^2 (DE): 246 ± 50 hairs/per cm^2
[1]; mean of the variation at M3 with respect to M0, 5% lotion, 30 μl once daily, 5 days per week, 3 months
  DE variation (%): −0.97%

## O=C(O)c1ccnc(C(=O)O)c1 [Pyridine-2,4-dicarboxylic acid]
Proline hydroxylase
  inhibition of proline hydroxylase (in words): very weak inhibitors
[2]; 2% lotion, 3 months, placebo areas do not change
  change of total density of treated areas (in words): increase in the total density
[2]; M0, before treatment, scalp area to receive 2% lotion (propylene glycol, ethanol, water), 25 men
  No. of hairs/per cm^2 (DE): 213 ± 45 hairs/per cm^2
[2]; M3, after 3 months, 2% lotion, 30 μl once daily, 5 days per week, topical on scalp
  No. of hairs/per cm^2 (DE): 224 ± 53 hairs/per cm^2
[2]; M3 with respect to M0, 2% lotion, 30 μl once daily, 5 days per week, 3 months
  DE variation (%): 4.4%

## O=C(O)c1ccc(C(=O)O)nc1 [pyridine-2,5-dicarboxylic acids, pyridine-2,5-dicarboxylic acid]
Proline hydroxylase
  inhibition of proline hydroxylase (in words): very weak inhibitors
